Assay results reported in US8063219B2, “Nitrogenous heterocyclic compounds, preparation thereof and use thereof as antibacterial medicaments” (Novexel, priority 2007, dated 2011).
Values after ≈ are worked out from the molar mass of the structure shown.

Columns and labels:
Test in all cases: In vitro activity, dilution method in liquid medium (MIC)
Type in all cases: cell-based
[1] = system: Pseudomonas aeruginosa 1771 strains wild type; conditions: for Activity against Pseudomonas aeruginosa (in words): in vitro
Description: (§1) A series of tubes are prepared in which equal quantities of sterile nutrient medium are placed, and increasing quantities of the product being studied are placed in each tube then each tube is plated with a bacterial strain. After 24 hours incubation in an oven at 37° C., the growth inhibition is assessed by transillumination, which makes it possible to determine the minimum inhibition concentrations (MIC) expressed in μg/ml.
Tests are carried out in this way with the products of Examples 1 and 2 and compared with the products of Examples and 19 of application WO 02/100860.

[2] = system: Pseudomonas aeruginosa PA01 wild type
Description: as §1

[3] = system: Pseudomonas aeruginosa strain resisting via porin mutations; conditions: for MIC (μg/ml) 24 h: Resisting via porin mutations [1 strain]
Description: as §1

[4] = system: Pseudomonas aeruginosa strains resisting via efflux pumps
Description: as §1

[5] = system: Pseudomonas aeruginosa strains resisting via β-lactamases; conditions: Resisting via β-lactamases [8 strains]
Description: as §1

[6] = 1771 strains wild type, 24 h incubation at 37° C.
[7] = Pseudomonas aeruginosa, 24 h, read-out: MIC (μg/ml) 24 h
[8] = Resisting via efflux pumps, second set [5 strains]

| Compound | MIC (μg/ml) 24 h [1, 6] [µg/mL] | MIC (μg/ml) 24 h [2] [µg/mL] | MIC (μg/ml) 24 h [3] [µg/mL] | MIC (μg/ml) 24 h ([4]; Resisting via efflux pumps [11/5 strains], set not given) | MIC (μg/ml) 24 h [5] [µg/mL] | MIC ([1]; Pseudomonas aeruginosa, 1771 strains wild type, 24 h incubation at 37° C., read-out: MIC (μg/ml) 24 h) [µg/mL] | MIC ([2]; Pseudomonas aeruginosa, PA01WILDTYPE, 24 h, read-out: MIC (μg/ml) 24 h) [µg/mL] | MIC [3, 7] [µg/mL] | MIC [4, 7] [µg/mL] | MIC [5, 7] [µg/mL] | Activity against Pseudomonas aeruginosa (in words) [1] | MIC (μg/ml) 24 h [4, 8] | MIC (μg/ml) 24 h ([4]; Resisting via efflux pumps, first set [11 strains]) [µg⁻¹ mL⁻¹] |
| --- | --- | --- | --- | --- | --- | --- | --- | --- | --- | --- | --- | --- | --- |
| CC(C)(O/N=C(\C(=O)N[C@@H]1C(=O)N2C(C(=O)[O-])=C(C[n+]3ccccc3)CS[C@H]12)c1csc(N)n1)C(=O)O [Ceftazidine, reference compound] | 1 (≈ 1.83 µM) | 2 (≈ 3.66 µM) | 2 (≈ 3.66 µM) | <=0.03-8 μg/ml | 2 to 32 |  |  |  |  |  |  |  |  |
| C[C@@H](O)[C@H]1C(=O)N2C(C(=O)O)=C(SCCN=CN)C[C@H]12 [Imipenem, reference compound] |  |  |  |  |  | 1 (≈ 3.34 µM) | 1 (≈ 3.34 µM) | 16 (≈ 53.4 µM) | 0.25 to 4 (≈ 0.835 to 13.4 µM) | 2 to 32 (≈ 6.68 to 107 µM) |  |  |  |
| The sodium and trifluoroacetate salt of trans[[8-(amino-methyl)-4,8-dihydro-6-oxo-5-(sulphooxy)-4,7-methano-7H-pyrazolo[3,4-e][1,3]diazepin-6(5H)-one [Ex 2] | 0.25 |  |  |  | 0.25 to 1 |  |  |  |  |  | very active | —/0.5-1 μg/ml |  |
| sodium and trifluoroacetate salts of trans[[8-(aminomethyl)-4,8-dihydro-1-methyl-6-oxo-5-(sulfooxy)-4,7-methano-7H-pyrazolo[3,4-e][1,3]diazepin-6(5H)-one [Ex 1] | 0.12 | 1 | 2 |  | 1 to 2 |  |  |  |  |  | very active | 0.25 to 0.5 µg/mL | 0.5 to 4 |
